ChEMBL document CHEMBL1201862, “PubChem BioAssay data set” (2004)
Active and inactive are the calls of the source.

Legend:
Ion channel NompC = Ion channel NompC (Danio rerio, UniProt Q7T1G6); test: Fluorescence counterscreen assay for TRPML3 agonists: dose response cell-based high-throughput screening assay to identify agonists of the transient receptor potential channel N1 (TRPN1). [Related pubchem assays: 1526, 1424, 1448 ]; assay type: functional
Mucolipin-3 = Mucolipin-3 (Homo sapiens, UniProt Q8TDD5); test: Dose response cell-based high-throughput screening assay for agonists of the transient receptor potential channel ML3 (TRPML3). [Related pubchem assays: 1526, 1424, 1448 ]; assay type: functional
Leucine aminopeptidase = biological target: T1, Leucine aminopeptidase (Plasmodium falciparum 3D7, UniProt Q8IL11); test: P. falciparum M17LAP inhibitors, primary screen, biochemical, fluorogenic H-Leu-NHMec substrate, 1536-well (AID 1619); assay type: functional
T1 sequence (Q8IL11 whole entry): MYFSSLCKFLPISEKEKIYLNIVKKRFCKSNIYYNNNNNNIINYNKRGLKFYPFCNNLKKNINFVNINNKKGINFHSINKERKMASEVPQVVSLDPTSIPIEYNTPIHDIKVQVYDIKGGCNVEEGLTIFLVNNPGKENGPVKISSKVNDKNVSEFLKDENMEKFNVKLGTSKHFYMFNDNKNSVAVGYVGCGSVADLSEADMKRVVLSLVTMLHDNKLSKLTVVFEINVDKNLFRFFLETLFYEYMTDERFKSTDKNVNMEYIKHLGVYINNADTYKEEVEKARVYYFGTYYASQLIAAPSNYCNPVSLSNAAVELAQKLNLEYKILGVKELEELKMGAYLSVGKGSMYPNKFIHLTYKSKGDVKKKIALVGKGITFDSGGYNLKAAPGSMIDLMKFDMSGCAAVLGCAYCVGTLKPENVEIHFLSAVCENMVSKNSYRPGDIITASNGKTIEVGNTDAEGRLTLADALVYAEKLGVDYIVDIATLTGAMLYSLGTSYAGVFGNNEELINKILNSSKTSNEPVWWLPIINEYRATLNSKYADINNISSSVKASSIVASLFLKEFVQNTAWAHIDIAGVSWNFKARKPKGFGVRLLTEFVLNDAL

[1] = biological target: T2, Oxysterols receptor LXR-beta (Homo sapiens, UniProt P55055); assay type: functional, cell-based;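 note: agonist activity at LXR measured by a cell-based luminescence readout across a dose range, run as a counterscreen for daf-12 agonists; HEK293 cells with Gal4-LXR fusion and GAL4-driven luciferase reporter; potency for activation of Gal4-LXR reporter so compounds are agonists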
T2 sequence (P55055 whole entry): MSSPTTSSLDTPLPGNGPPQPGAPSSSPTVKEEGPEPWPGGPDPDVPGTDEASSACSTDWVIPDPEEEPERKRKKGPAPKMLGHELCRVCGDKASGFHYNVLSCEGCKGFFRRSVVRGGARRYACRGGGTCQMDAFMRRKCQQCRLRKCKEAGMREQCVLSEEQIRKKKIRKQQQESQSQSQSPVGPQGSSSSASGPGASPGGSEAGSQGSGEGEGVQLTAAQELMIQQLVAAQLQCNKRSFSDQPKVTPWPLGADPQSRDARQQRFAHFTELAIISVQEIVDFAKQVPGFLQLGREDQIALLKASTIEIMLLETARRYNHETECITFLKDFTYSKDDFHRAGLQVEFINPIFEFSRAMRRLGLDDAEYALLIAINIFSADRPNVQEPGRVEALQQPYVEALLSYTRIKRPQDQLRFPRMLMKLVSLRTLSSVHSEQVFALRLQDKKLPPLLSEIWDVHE

[2] = biological target: Peroxisome proliferator-activated receptor gamma/Nuclear receptor coactivator 2 (Homo sapiens, UniProt P37231); assay type: functional;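 note: agonist potency for raising coactivator recruitment to the receptor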
[3] = biological target: Peroxisome proliferator-activated receptor gamma/Nuclear receptor coactivator 1 (Homo sapiens, UniProt P37231); assay type: functional;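 note: agonist potency as compounds enhance coactivator SRC-1 recruitment to PPARgamma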
[4] = biological target: Peroxisome proliferator-activated receptor gamma/Nuclear receptor coactivator 3 (Homo sapiens, UniProt P37231); assay type: functional;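 note: agonist potency for raising coactivator recruitment to the receptor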
[5] = Late stage assay provider results from the probe development effort to identify selective inhibitors of heat shock protein 90 (HSP90): Absorbance-based cell proliferation assay in MCF7 cells.; assay type: functional
[6] = Late stage assay provider results from the probe development effort to identify selective inhibitors of heat shock protein 90 (HSP90): Absorbance-based cell proliferation assay in SKBR3 cells.; assay type: functional; conditions: SK-BR-3
[7] = biological target: Metabotropic glutamate receptor 5 (Rattus norvegicus, UniProt P31424); test: Identification of a glycine sulfonamide based non-MPEP site positive allosteric potentiator (PAM) of mGlu5 (calcium_assay).; assay type: functional
[8] = cytotoxicity in OVCAR4 cells, dose response, cytotoxicity control for PAX8 inhibitor project, cell-based, plate reader, dry powder, SA11 (AID 743150); assay type: functional; conditions: OVCAR-4
[9] = PAX5 activity inhibitors, dose response, selectivity assay for PAX8 inhibitor project, cell-based, plate reader, dry powder samples (AID 743047); assay type: functional;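 note: HEK293 cells carrying a Pax5 driven CD19 promoter luciferase reporter; potency of inhibitors that lower reporter luminescence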
[10] = cytotoxicity toward DRD oncogenic fibroblasts, dose response, cell-based, non-viral oncogenic, luminescence (AID 1934); assay type: functional; conditions: Homo sapiens
[11] = IOSE-T80 ovarian epithelial cell cytotoxicity, dose response, cytotoxicity control for PAX8 inhibitor project, plate reader, dry powder samples (AID 743045); assay type: functional, cell-based
[12] = PAX2 cell-based inhibition, dose response, selectivity assay for PAX8 inhibitor project, plate reader, dry powder samples (AID 743048); assay type: functional;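 note: HEK293 cells carrying a WT1 promoter luciferase reporter driven by expressed Pax2; potency is for inhibition of Pax2 driven reporter signal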
[13] = IGROV1 ovarian cancer cell cytotoxicity, dose response, PAX8 inhibitor project, plate reader, dry powder samples (AID 743043); assay type: functional, cell-based; conditions: IGROV-1
[14] = cytotoxicity in COV362 ovarian cancer cells, dose response, cytotoxicity control for PAX8 inhibitor project, cell-based, plate reader, dry powder, SA12 (AID 743144); assay type: functional
[15] = cytotoxicity in HEK-293T cells, dose response, cytotoxicity control for TCR NF-kB inhibitor project, luminescence, T-cell screen hits (AID 489026); assay type: functional, cell-based;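 note: cells exposed to compound about 14 hours before the viability readout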
BJ = test: cells; assay type: functional, cell-based; conditions: Homo sapiens
[16] = NIH:OVCAR-3 ovarian cancer cell cytotoxicity, dose response, PAX8 inhibitor project, plate reader, dry powder samples (AID 743044); assay type: functional, cell-based
Paired box protein Pax-8 = Paired box protein Pax-8 (Homo sapiens, UniProt Q06710); test: inhibitors of PAX8-driven TPO luciferase reporter, dose response, RMG-I cells, cherry-pick (AID 687027); assay type: functional, cell-based;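 note: luciferase reporter driven by Pax8 target thyroperoxidase promoter measured by SteadyGlo luminescence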
[17] = cytotoxicity in HMLE control line with eGFP shRNA, dose response, counter-screen for HMLE_sh_ECad selective toxicity project, cell-based, HMLE_sh_eGFP, luminescence (AID 463074); assay type: functional, Homo sapiens;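 note: HMLE human mammary epithelial cells expressing control shRNA against eGFP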
[18] = cytotoxicity in COV434 cells, dose response, cytotoxicity control for PAX8 inhibitor project, cell-based, plate reader, dry powder, SA7 (AID 743145); assay type: functional
[19] = cytotoxicity in OV-90 ovarian cancer cells, dose response, PAX8 inhibitor project, cell-based, plate reader, dry powder, SA8 (AID 743149); assay type: functional
[20] = cytotoxicity dependent on PAX8, dose response, cell-based, plate reader, dry powder (AID 743049); assay type: functional
[21] = Luminescence Cell-Based Dose Retest to Confirm Inhibitors of Cancer Stem Cells. [Related pubchem assays (depositor defined):AID2717, AID2721]; assay type: functional; conditions: Homo sapiens
cells = assay type: functional, cell-based
[22] = A2780 ovarian cancer cell cytotoxicity, dose response, cytotoxicity control, plate reader, dry powder samples (AID 743046); assay type: functional, cell-based
[23] = biological target: T3, Nuclear receptor subfamily 0 group B member 1 (Homo sapiens, UniProt P51843); assay type: functional, cell-based;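 note: HEK293T cells transfected with SF-1 and DAX-1 plus StAR promoter luciferase reporter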
T3 sequence (P51843 whole entry): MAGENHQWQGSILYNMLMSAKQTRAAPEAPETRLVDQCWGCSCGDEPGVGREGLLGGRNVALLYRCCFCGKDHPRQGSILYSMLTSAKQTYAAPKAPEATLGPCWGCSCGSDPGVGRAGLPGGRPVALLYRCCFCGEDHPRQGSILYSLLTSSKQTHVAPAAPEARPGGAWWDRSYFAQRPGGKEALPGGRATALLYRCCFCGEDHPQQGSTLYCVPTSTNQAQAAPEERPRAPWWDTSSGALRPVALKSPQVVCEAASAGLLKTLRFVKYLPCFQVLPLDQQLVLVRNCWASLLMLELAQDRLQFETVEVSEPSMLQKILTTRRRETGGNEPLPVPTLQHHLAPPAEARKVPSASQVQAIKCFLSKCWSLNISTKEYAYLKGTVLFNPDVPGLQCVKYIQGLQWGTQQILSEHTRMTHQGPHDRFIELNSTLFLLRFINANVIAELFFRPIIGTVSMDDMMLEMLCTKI

Protein RecA = biological target: T4, Protein RecA (Mycobacterium tuberculosis, UniProt P9WHJ3); test: Fluorescence Cell-Free Homogeneous Dose Retest to Identify Inhibitors of RecA-Intein Splicing Activity. [Related pubchem assays (depositor defined):AID2097, AID2223, AID489010, AID492950]; assay type: functional
T4 sequence (P9WHJ3 whole entry): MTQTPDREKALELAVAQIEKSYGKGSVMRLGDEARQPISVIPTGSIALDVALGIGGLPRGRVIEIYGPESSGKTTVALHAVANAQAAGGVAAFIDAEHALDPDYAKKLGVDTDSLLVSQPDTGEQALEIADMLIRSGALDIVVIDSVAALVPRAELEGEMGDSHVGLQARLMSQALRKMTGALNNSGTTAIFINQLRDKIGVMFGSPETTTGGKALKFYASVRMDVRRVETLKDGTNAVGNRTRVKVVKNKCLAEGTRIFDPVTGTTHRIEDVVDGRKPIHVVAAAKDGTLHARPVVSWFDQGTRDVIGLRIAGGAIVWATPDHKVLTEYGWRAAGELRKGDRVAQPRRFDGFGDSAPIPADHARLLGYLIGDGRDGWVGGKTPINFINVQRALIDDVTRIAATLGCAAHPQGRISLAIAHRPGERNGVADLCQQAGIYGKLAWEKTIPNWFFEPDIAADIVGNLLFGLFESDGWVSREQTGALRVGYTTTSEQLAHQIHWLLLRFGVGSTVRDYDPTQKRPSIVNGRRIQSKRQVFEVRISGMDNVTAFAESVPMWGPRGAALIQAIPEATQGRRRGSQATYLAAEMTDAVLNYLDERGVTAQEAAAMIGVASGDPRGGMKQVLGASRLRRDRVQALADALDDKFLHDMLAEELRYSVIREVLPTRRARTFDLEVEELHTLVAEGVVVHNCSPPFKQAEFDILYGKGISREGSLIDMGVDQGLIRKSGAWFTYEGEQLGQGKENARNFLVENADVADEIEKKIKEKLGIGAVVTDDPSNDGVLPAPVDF

[24] = biological target: T5, Replicative DNA helicase DnaB (Mycobacterium tuberculosis, UniProt P9WMR3); test: DnaB intein splicing inhibitors, dose response, biochemical, cell-free fluorescence (AID 449749); assay type: functional
T5 sequence (P9WMR3 whole entry): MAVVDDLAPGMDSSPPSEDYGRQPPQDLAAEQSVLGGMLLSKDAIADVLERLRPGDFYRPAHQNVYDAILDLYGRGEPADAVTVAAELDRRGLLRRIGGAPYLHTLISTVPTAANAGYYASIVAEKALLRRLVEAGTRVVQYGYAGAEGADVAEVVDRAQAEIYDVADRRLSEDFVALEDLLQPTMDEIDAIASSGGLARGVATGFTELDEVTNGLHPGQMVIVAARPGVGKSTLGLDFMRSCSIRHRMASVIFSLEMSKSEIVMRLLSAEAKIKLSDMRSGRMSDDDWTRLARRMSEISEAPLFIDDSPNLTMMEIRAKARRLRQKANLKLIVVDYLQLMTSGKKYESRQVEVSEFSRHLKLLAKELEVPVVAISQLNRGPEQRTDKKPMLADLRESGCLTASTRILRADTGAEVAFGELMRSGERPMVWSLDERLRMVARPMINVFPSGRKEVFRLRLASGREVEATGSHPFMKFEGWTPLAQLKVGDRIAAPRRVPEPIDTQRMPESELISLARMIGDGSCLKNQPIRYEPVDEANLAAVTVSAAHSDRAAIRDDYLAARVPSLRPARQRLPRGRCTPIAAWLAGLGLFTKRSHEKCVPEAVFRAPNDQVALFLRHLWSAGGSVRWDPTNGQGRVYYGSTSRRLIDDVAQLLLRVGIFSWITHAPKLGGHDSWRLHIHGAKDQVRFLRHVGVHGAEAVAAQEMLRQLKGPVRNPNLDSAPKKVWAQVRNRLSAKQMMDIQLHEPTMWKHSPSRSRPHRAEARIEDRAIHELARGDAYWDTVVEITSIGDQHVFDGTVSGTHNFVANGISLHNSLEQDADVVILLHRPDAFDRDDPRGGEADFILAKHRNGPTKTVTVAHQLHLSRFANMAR

Nonstructural protein 1 = Nonstructural protein 1 (Influenza A virus, UniProt Q194T2); assay type: functional, Influenza A virus (A/California/07/2009(H1N1))
fMet-Leu-Phe receptor = fMet-Leu-Phe receptor (Homo sapiens, UniProt P21462); test: FPR ligands, dose response (AID 519); assay type: functional
Chain of fMet-Leu-Phe receptor (P21462 whole entry): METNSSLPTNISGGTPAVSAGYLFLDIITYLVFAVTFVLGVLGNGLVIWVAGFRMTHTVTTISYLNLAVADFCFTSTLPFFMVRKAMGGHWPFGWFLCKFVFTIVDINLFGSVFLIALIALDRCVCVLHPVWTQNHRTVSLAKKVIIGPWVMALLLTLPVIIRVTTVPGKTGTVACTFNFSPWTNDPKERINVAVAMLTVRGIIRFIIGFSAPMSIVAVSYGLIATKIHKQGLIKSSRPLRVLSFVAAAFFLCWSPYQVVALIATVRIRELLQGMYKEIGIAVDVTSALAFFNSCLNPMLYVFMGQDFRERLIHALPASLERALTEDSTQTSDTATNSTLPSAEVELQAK

Chain of Mucolipin-3 (Q8TDD5 whole entry): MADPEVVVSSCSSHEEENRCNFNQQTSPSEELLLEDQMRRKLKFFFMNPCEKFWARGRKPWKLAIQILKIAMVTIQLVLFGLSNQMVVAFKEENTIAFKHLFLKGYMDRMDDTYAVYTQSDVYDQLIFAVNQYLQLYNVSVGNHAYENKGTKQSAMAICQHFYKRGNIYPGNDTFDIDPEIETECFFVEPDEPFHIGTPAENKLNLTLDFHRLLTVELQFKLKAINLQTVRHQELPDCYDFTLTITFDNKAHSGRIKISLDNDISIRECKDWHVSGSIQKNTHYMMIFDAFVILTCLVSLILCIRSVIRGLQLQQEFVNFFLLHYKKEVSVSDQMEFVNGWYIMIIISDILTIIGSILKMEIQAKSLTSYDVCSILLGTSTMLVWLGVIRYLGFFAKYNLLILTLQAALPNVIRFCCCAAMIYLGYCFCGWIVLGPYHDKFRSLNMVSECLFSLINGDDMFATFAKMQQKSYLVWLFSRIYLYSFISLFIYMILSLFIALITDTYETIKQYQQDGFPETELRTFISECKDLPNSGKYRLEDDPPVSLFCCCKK
Chain of Paired box protein Pax-8 (Q06710 whole entry): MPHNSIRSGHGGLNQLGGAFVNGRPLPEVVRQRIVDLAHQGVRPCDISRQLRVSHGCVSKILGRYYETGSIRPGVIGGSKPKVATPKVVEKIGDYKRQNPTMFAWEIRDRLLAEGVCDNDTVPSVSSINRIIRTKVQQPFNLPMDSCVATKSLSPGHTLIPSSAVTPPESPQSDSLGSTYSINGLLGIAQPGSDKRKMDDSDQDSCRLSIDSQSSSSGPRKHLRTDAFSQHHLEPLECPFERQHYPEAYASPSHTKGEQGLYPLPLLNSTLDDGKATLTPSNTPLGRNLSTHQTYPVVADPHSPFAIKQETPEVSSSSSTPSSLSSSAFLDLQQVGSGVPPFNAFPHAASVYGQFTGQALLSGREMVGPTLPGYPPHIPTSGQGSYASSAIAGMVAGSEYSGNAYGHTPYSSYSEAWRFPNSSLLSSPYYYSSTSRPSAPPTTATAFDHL
Chain of Metabotropic glutamate receptor 5 (P31424 whole entry): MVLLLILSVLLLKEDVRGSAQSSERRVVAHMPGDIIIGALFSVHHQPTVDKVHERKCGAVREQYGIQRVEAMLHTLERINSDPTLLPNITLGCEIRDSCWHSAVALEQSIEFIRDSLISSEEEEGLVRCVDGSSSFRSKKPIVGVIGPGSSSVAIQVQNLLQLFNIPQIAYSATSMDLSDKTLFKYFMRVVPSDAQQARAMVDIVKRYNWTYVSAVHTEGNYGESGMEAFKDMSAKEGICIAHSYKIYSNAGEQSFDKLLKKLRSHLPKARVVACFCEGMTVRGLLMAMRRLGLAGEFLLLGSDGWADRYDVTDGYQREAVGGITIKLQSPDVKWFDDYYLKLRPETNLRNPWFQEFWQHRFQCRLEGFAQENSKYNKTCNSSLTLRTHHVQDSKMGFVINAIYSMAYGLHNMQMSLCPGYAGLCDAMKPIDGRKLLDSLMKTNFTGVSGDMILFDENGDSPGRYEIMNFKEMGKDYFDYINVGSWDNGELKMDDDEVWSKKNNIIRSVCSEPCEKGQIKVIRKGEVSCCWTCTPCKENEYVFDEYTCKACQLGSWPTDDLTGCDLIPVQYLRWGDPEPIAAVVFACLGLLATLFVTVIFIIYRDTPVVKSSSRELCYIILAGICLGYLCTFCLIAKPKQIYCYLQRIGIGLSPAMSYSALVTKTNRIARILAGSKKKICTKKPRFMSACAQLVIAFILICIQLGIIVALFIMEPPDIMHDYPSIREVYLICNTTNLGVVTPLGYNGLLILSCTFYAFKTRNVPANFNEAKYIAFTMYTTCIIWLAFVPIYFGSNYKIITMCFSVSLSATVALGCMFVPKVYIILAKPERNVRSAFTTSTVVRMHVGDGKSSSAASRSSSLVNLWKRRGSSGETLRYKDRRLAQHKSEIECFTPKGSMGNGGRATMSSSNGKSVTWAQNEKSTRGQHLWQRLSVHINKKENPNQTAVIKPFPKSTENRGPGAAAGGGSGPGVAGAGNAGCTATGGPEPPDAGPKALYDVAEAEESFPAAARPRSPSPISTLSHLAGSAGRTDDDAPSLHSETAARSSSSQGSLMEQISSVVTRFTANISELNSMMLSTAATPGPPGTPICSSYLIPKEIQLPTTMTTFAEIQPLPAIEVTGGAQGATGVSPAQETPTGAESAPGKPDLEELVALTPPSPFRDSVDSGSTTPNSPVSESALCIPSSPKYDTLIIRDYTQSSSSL
Chain of Peroxisome proliferator-activated receptor gamma/Nuclear receptor coactivator 2 (P37231 whole entry): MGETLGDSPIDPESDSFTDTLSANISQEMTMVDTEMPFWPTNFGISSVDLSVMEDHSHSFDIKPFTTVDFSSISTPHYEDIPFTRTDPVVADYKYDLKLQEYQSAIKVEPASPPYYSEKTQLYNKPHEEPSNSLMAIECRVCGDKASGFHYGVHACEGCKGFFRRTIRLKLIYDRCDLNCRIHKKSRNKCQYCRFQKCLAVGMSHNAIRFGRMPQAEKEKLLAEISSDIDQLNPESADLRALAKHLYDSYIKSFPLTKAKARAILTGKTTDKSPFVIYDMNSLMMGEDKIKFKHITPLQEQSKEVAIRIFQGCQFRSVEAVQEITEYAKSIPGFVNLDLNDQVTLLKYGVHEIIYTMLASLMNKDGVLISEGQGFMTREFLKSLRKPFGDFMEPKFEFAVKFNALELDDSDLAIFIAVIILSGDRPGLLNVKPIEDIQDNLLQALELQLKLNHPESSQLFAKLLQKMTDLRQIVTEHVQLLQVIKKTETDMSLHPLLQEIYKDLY
Chain of Peroxisome proliferator-activated receptor gamma/Nuclear receptor coactivator 2 (Q15596 whole entry, further chain): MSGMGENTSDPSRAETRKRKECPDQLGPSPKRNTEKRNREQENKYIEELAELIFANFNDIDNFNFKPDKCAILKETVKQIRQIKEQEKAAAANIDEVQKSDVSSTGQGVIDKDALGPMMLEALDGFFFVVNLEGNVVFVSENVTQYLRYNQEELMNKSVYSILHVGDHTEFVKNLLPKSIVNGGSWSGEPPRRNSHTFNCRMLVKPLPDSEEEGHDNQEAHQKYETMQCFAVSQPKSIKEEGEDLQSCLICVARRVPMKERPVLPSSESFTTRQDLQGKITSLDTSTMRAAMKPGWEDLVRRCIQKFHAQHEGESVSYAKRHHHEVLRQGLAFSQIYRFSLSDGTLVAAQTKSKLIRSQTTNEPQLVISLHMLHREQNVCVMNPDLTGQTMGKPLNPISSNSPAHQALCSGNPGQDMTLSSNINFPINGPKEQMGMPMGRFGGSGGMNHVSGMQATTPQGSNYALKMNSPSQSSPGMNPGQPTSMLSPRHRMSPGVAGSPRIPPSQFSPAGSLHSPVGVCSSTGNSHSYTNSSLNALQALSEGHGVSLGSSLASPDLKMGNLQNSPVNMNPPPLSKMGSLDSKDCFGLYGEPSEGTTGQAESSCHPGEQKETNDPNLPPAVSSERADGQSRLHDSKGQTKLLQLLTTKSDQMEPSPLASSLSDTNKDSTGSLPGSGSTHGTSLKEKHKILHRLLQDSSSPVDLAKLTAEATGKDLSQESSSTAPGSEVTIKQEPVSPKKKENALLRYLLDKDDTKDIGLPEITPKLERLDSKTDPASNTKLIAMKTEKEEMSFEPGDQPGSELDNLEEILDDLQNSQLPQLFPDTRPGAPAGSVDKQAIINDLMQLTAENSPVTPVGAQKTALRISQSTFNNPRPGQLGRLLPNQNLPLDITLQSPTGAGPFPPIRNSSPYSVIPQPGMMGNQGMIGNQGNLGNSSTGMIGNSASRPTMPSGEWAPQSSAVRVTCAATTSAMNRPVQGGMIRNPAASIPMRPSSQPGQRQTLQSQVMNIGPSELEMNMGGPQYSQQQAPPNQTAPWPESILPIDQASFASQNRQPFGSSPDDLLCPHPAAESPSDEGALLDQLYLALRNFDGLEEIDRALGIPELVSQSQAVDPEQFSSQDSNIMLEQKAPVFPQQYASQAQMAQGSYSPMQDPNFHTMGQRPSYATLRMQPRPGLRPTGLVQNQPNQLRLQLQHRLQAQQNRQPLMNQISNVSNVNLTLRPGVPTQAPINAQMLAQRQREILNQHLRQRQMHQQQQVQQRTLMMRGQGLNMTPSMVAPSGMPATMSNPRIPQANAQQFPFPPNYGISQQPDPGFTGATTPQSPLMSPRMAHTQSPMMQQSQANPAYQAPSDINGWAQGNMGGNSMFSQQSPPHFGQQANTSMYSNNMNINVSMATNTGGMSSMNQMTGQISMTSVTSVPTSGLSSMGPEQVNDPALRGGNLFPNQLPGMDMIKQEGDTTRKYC
Chain of Nonstructural protein 1 (Q194T2 whole entry): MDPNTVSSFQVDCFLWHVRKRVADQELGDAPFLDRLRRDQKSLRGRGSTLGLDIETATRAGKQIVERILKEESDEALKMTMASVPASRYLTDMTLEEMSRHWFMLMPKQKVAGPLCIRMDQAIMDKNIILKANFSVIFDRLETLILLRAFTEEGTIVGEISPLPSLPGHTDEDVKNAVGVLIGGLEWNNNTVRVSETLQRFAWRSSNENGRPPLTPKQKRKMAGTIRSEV

SMILES: C=CCN1C=CC(=C/C=C(/C#N)C(=O)OCC)C=C1
- EC50 (Ion channel NompC): 6.09 µM (active)
- EC50 (Mucolipin-3): 15.3 µM (not active)
- IC50 (Leucine aminopeptidase): 72.5 µM (active)
- EC50 [1]: > 67.5 µM (inactive)
- EC50 [2]: > 79.4 µM (not active)
- EC50 [3]: > 79.4 µM (not active)
- EC50 [4]: > 79.4 µM (not active)

SMILES: CC(=O)c1ccc(NC(=O)c2ccc(=O)oc2)cc1
- IC50 [5]: > 100 µM (inactive)
- IC50 [6]: > 100 µM (inactive)

SMILES: CS(=O)(=O)N(CC(=O)Nc1ccccn1)c1cc(C(F)(F)F)ccc1Cl
- EC50 [7]: 0.085 µM

SMILES: Cc1cccc(N(C)S(=O)(=O)c2ccc(-c3cnc(C4CC4)o3)cc2)c1
- AC50 [8]: 0.364 µM (active)
- AC50 [9]: 76.2 µM (active)
- EC50 [10]: < 0.12 µM (active)
- AC50 [11]: 0.778 µM (active)
- AC50 [12]: 33.9 µM (active)
- AC50 [13]: 13 µM (active)
- AC50 [14]: 0.366 µM (active)
- IC50 [15]: > 80 µM (inactive)
- EC50 (BJ): 40.7 µM (active)
- AC50 [16]: 1.89 µM (active)
- AC50 (Paired box protein Pax-8): 1.99 µM (active)
- AC50 [17]: 0.562 µM (inconclusive)
- AC50 [18]: 0.823 µM (active)
- AC50 [19]: 1.19 µM (active)
- AC50 [20]: 3.81 µM (active)
- AC50 [21]: < 0.16 µM (active)
- IC50 (cells): > 67.5 µM (inactive)
- AC50 [22]: 3.95 µM (active)
- IC50 [23]: > 67.5 µM (inactive)

SMILES: Nc1ccc(Nc2ccccc2N)cc1
- EC50 (Protein RecA): 6.86 µM (active)
- AC50 [24]: 17.9 µM (active)
- IC50 (Nonstructural protein 1): 8.33 µM (active)
- Ki (fMet-Leu-Phe receptor): > 66.7 µM (inactive)
